According to US9926306B2, “Inhibition of MCL-1 and/or BFL-1/A1” (Dana-Farber Cancer Institute, Inc., priority 2012, dated 2018):
pIC50: −log10 of the molar value.

Columns and labels:
[1] = molecular target: T1, MCL-1ΔNΔC (Homo sapiens (Human), UniProt Q07820); experiment: Competitive fluorescence polarization binding assay, MCL-1; settings: competitive FP
Experimental: Here, we deployed MCL-1 SAHBA as a high fidelity screening tool to determine if its potency and specificity-of-action could be harnessed for small molecule discovery. […] A compilation of 71,296 small molecules was screened for the capacity to displace FITC-MCL-1 SAHBA from recombinant MCL-1ΔNΔC (aa 172-327) (FIG. 4).
Fluorescence polarization assays (FPA) were performed as previously described^38,39. […] Fluorescence polarization was measured at equilibrium and IC50 values calculated by nonlinear regression analysis of competitive binding curves using Prism software (Graphpad).

[2] = molecular target: T1, MCL-1ΔNΔC; experiment: BAX-mediated liposomal release assay, suppression by MCL-1; type: biochemical
Experimental: (§1) Liposomes were prepared and release assays performed as previously described^46,47. Liposomal composition reflects a mixture of the following molar percentages of lipids (Avanti Polar Lipids): phosphatidylcholine, 48%; phosphatidylethanolamine, 28%; phosphatidylinositol, 10%; dioleoyl phosphatidylserine, 10%; and tetraoleoyl cardiolipin, 4%. Aliquots of mixed lipids (1 mg total) are stored in glass at −20° C. under nitrogen, and before use, resuspended in liposome assay buffer (10 mM HEPES, 200 mM KCl, 1 mM MgCl2, pH 7) containing 12.5 mM of the fluorescent dye ANTS (8-aminonaphthalene-1,3,6-trisulfonic acid, disodium salt) and 45 mM of the quencher DPX (p-xylene-bis-pyridinium bromide. The resulting slurry is vortexed for 10 min and freeze-thawed five times in liquid nitrogen and a 40° C. water bath, respectively. The solution is then passed through an Avanti Mini-Extruder Set (#610000) equipped with a 100 nm filter, followed by passage through a Sepharose column (GE Healthcare) to remove residual ANTS/DPX.

[3] = molecular target: BCL-XLΔC (Homo sapiens (Human), UniProt Q07817); experiment: BAX-mediated liposomal release assay, suppression by BCL-XL; type: biochemical
Experimental: as §1

[4] = tested on: MCL-1-rescued p185+Arf−/−Mcl-1−/− CML cells; experiment: Cell viability (CellTiter-Glo), MCL-1-dependent leukemia cells; type: cell-based, murine; settings: MCL-1-dependent cells
Text: A challenges in developing and applying molecular antagonists for BCL-2 family anti-apoptotic proteins is the variable expression of multiple homologues. That is, a cancer cell will only be susceptible to a selective anti-apoptotic inhibitor if the cell is especially dependent on that particular survival protein. […] To test MIM1's activity and specificity in cancer cells, we employed murine p185^+Arf^−/−Mcl-1^−/− chronic myelogenous leukemia (CML) cells that are unable to survive unless reconstituted with MCL-1, reflecting a stringent system for assessing MCL-1 dependence.
p185^+Arf^−/− and MCL-1 or BCL-XL-rescued p185^+Arf^−/−Mcl^−/− cells were maintained in RPMI 1640 (ATCC) supplemented with 10% (v/v) FBS, 100 U/mL penicillin, 100 μg/mL streptomycin, 0.1 mM MEM non-essential amino acids and 50 μM β-mercaptoethanol. […] Cell viability was assayed at 24 h by addition of CellTiter-Glo reagent according to the manufacturer's protocol (Promega), and luminescence was measured using a SpectraMax M5 microplate reader (Molecular Devices). Caspase 3/7 activation was assayed at 8 h by addition of Caspase-Glo 3/7 reagent according to manufacturer's protocol (Promega), and luminescence measured using a SpectraMax M5 microplate reader. […]

[5] = tested on: BCL-XL-rescued p185+Arf−/−Mcl-1−/− CML cells; experiment: Cell viability (CellTiter-Glo), BCL-XL-dependent leukemia cells; type: cell-based, murine; settings: Mus musculus, 24 h
Experimental: Cell viability was assayed at 24 h by addition of CellTiter-Glo reagent according to the manufacturer's protocol (Promega), and luminescence was measured using a SpectraMax M5 microplate reader (Molecular Devices). […] Viability and caspase assays were performed in duplicate, repeated at least twice with independent cell cultures, and the data normalized to vehicle-treated control wells.

[6] = tested on: parental p185+Arf−/− CML cells; experiment: Cell viability and CalcuSyn synergy, parental leukemia cells; type: cell-based, murine; settings: Mus musculus; parental cells expressing both MCL-1 and BCL-XL; read-out: IC50, cytotoxicity
Experimental: (§2) p185^+Arf^−/− and MCL-1 or BCL-XL-rescued p185^+Arf^−/−Mcl^−/− cells were maintained in RPMI 1640 (ATCC) supplemented with 10% (v/v) FBS, 100 U/mL penicillin, 100 μg/mL streptomycin, 0.1 mM MEM non-essential amino acids and 50 μM β-mercaptoethanol. Mouse embryonic fibroblasts (MEFs) cells were maintained in DMEM high glucose (Invitrogen) supplemented with 10% (v/v) FBS, 100 U/mL penicillin, 100 μg/mL streptomycin, 2 mM L-glutamine, 50 mM HEPES, 0.1 mM MEM non-essential amino acids and 50 μM β-mercaptoethanol. […] Cell viability was assayed at 24 h by addition of CellTiter-Glo reagent according to the manufacturer's protocol (Promega), and luminescence was measured using a SpectraMax M5 microplate reader (Molecular Devices). Caspase 3/7 activation was assayed at 8 h by addition of Caspase-Glo 3/7 reagent according to manufacturer's protocol (Promega), and luminescence measured using a SpectraMax M5 microplate reader. Viability and caspase assays were performed in duplicate, repeated at least twice with independent cell cultures, and the data normalized to vehicle-treated control wells.

[7] = tested on: wild-type or Bax−/−Bak−/− MEFs; experiment: Cell viability (CellTiter-Glo), MEFs; type: cell-based, mouse; settings: non-malignant fibroblasts, 24 h
Experimental: as §2

[8] = tested on: wild-type or Bax−/−Bak−/− MEFs; experiment: Caspase 3/7 activation (Caspase-Glo), MEFs; type: cell-based, mouse; settings: 8 h
Experimental: as §2

[9] = tested on: BCL-XL-rescued p185+Arf−/−Mcl-1−/− CML cells; experiment: Caspase 3/7 activation (Caspase-Glo), BCL-XL-dependent leukemia cells; type: cell-based, murine; settings: 8 h
Experimental: p185^+Arf^−/− and MCL-1 or BCL-XL-rescued p185^+Arf^−/−Mcl^−/− cells were maintained in RPMI 1640 (ATCC) supplemented with 10% (v/v) FBS, 100 U/mL penicillin, 100 μg/mL streptomycin, 0.1 mM MEM non-essential amino acids and 50 μM β-mercaptoethanol. […] Caspase 3/7 activation was assayed at 8 h by addition of Caspase-Glo 3/7 reagent according to manufacturer's protocol (Promega), and luminescence measured using a SpectraMax M5 microplate reader. Viability and caspase assays were performed in duplicate, repeated at least twice with independent cell cultures, and the data normalized to vehicle-treated control wells.

T1 sequence (Q07820 172-327, stated change not applied): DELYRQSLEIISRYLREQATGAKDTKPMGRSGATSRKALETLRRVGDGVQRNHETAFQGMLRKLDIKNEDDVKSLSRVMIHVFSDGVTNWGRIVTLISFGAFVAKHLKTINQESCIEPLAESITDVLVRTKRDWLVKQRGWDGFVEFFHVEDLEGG
Sequence of BCL-XLΔC (Q07817 1-212): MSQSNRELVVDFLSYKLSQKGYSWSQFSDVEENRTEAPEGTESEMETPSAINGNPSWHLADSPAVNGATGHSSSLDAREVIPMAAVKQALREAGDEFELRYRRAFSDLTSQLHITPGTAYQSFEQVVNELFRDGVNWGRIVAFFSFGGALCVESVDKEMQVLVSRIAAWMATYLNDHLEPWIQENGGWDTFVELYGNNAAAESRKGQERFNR

MCL-1ΔNΔC binding activity [1]: no activity
blockade of MCL-1ΔNΔC suppression of tBID-induced BAX activation [2]: no effect
blockade of BCL-XLΔC suppression of tBID-induced BAX activation [3]: negates
pIC50 [5]: 5.80
caspase 3/7 activation [8]: no observed caspase 3/7 activation
Compound: CN(C)CC[C@H](CSc1ccccc1)Nc1ccc(S(=O)(=O)NC(=O)c2ccc(N3CCN(Cc4ccccc4-c4ccc(Cl)cc4)CC3)cc2)cc1[N+](=O)[O-] [ABT-737, N-(4-(4-((4′-chloro(1,1′-biphenyl)-2-yl)methyl)piperazin-1-yl)benzoyl)-4-(((1R)-3-(dimethylamino)-1-((phenylsulfanyl)methyl)propyl)amino)-3-nitrobenzenesulfonamide, reference compound]
effect on viability / cytotoxicity [4]: no effect
pIC50 [6]: 5.29
effect on viability / toxicity [7]: no significant effect
caspase 3/7 activation [9]: dose-responsive caspase 3/7 activation
